Read-outs that look alike come from different tables or passages of the source.
Tests used:
[1] = target: T1, aggregated 4R-tau in AD tissue (Homo sapiens, UniProt P10636); test: In vitro competition (Ki) assay, AD brain tissue homogenate; assay type: binding
T1 construct: autopsy-confirmed postmortem AD, PSP, and CBD human brain tissues; tissue UCSF Neurodegenerative Disease Brain Bank; host or cells: post-mortem human AD brain homogenate
Procedure: (§1) The assays utilized autopsy-confirmed postmortem AD, PSP, and CBD human brain tissues obtained from the UCSF Neurodegenerative Disease Brain Bank and contained frequent autopsy-confirmed 3R/4R-tau and amyloid-beta aggregates (AD tissue) or only 4R-tau aggregates (PSP and CBD tissues) and no other detectable aggregated amyloid species. Briefly, the tissues were homogenized in ice-cold pH 7.0 phosphate buffered saline (PBS) at 300 mg/mL on ice using a glass homogenizer, diluted 30-fold with PBS to 10 mg/mL and homogenized a second time with a Brinkmann Polytron homogenizer before storage at −80° C. Frozen brain tissue was thawed and diluted 10-fold in PBS to 1 mg/mL. […] The appropriate concentrations (ranging from 0.1-1000 nM) of unlabeled competitor in 400 μL of PBS buffer were combined with 500 μL of the tritium-labeled radioligand in PBS (~1 nM final concentration of radioligand). The assay was initiated by the addition of 100 μL of 1 mg/mL brain tissue homogenate to achieve a final concentration of 100 pg tissue/mL. After incubation for 60 min at room temperature, the binding mixture was filtered through a Whatman GF/B glass filter via a Brandel M-24R cell harvester (Gaithersburg, MD, USA) and rapidly washed four times with 3 mL PBS buffer. The filters were counted in Cytoscint-ES after thorough vortexing using a liquid scintillation counter. […] All assays were performed in triplicate at each concentration.

[2] = target: T2, aggregated 4R-tau in PSP tissue (Homo sapiens, UniProt P10636); test: In vitro competition (Ki) assay, PSP brain tissue homogenate; assay type: binding
T2 construct: autopsy-confirmed postmortem AD, PSP, and CBD human brain tissues; tissue UCSF Neurodegenerative Disease Brain Bank; host or cells: post-mortem human PSP brain homogenate
Procedure: as §1

[3] = target: T3, alpha-synuclein (Homo sapiens, UniProt P37840); test: Homologous binding assay, Parkinson's Disease (PD) brain tissue
T3 construct: Parkinson's Disease (PD) post-mortem brain tissue; from tissue; host or cells: post-mortem Parkinson's Disease brain

[4] = target: T4, PiB binding site on amyloid-beta (Homo sapiens, UniProt P05067); test: Competition against [^3H]PiB in post-mortem human AD brain tissue
T4 construct: from tissue; host or cells: post-mortem human AD brain
Procedure: The assays utilized autopsy-confirmed postmortem AD, PSP, and CBD human brain tissues obtained from the UCSF Neurodegenerative Disease Brain Bank and contained frequent autopsy-confirmed 3R/4R-tau and amyloid-beta aggregates (AD tissue) or only 4R-tau aggregates (PSP and CBD tissues) and no other detectable aggregated amyloid species. Briefly, the tissues were homogenized in ice-cold pH 7.0 phosphate buffered saline (PBS) at 300 mg/mL on ice using a glass homogenizer, diluted 30-fold with PBS to 10 mg/mL and homogenized a second time with a Brinkmann Polytron homogenizer before storage at −80° C. Frozen brain tissue was thawed and diluted 10-fold in PBS to 1 mg/mL. […] The appropriate concentrations (ranging from 0.1-1000 nM) of unlabeled competitor in 400 μL of PBS buffer were combined with 500 μL of the tritium-labeled radioligand in PBS (~1 nM final concentration of radioligand). The assay was initiated by the addition of 100 μL of 1 mg/mL brain tissue homogenate to achieve a final concentration of 100 pg tissue/mL. After incubation for 60 min at room temperature, the binding mixture was filtered through a Whatman GF/B glass filter via a Brandel M-24R cell harvester (Gaithersburg, MD, USA) and rapidly washed four times with 3 mL PBS buffer. The filters were counted in Cytoscint-ES after thorough vortexing using a liquid scintillation counter. […]

[5] = target: T5, aggregated 4R-tau in AD brain (Homo sapiens, UniProt P10636); test: Binding affinity (Kd) assay, AD brain homogenate; conditions: for Kd: AD brain, Table 1
T5 construct: aggregated 4R-tau in human brain tissue samples from AD, PSP, and CBD patients; from tissue; host or cells: homogenized cortex of human AD brain

[6] = target: T6, aggregated 4R-tau in PSP brain (Homo sapiens, UniProt P10636); test: Binding affinity (Kd) assay, PSP brain homogenate; conditions: for Kd: PSP brain, Table 1
T6 construct: aggregated 4R-tau in human brain tissue samples from AD, PSP, and CBD patients; from tissue; host or cells: homogenized cortex of human PSP brain

[7] = target: T7, aggregated 4R-tau in CBD brain (Homo sapiens, UniProt P10636); test: Binding affinity (Kd) assay, CBD brain homogenate; conditions: for Kd: CBD brain, Table 1
T7 construct: aggregated 4R-tau in human brain tissue samples from AD, PSP, and CBD patients; from tissue; host or cells: homogenized cortex of human CBD brain

[8] = target: T8, Pick's Disease brain tissue (Homo sapiens, UniProt P10636); test: Homologous binding assay, Pick's Disease brain tissue; conditions: post-mortem human Pick's Disease brain tissue
T8 construct: post-mortem human AD, PSP, CBD, and Pick's Disease brain tissue; from tissue; host or cells: post-mortem human Pick's Disease brain

[9] = target: T9, P301L mouse brain tissue (Homo sapiens, UniProt P10636, P618L); test: Homologous binding assay, P301L mouse brain tissue
T9 construct: from tissue; host or cells: brain tissue of P301L mouse

[10] = system: PSP brain tissue; test: Autoradiography, post-mortem PSP brain tissue; assay type: binding, human; conditions: medial frontal cortex, 5 nM, self-blocking with 1 mM unlabeled 69
[11] = system: CBD brain tissue; test: Autoradiography, post-mortem CBD brain tissue; assay type: binding, human; conditions: medial frontal cortex, 5 nM, self-blocking with 1 mM unlabeled 69
[12] = system: AD brain tissue; test: Autoradiography, post-mortem AD brain tissue; assay type: binding, human; conditions: medial frontal cortex, 5 nM, self-blocking with 1 mM unlabeled 69
[13] = system: post-mortem human brain control tissue; test: Autoradiography, post-mortem control brain tissue; assay type: binding; conditions: cingulate gyrus, 5 nM, self-blocking with 1 mM unlabeled 69
[14] = log D of radiotracer; assay type: physicochemical; conditions: n=4
[15] = vs [^3H]1, n = 1, Ki=IC50/2, read-out: Inhibition Constant (Ki) versus [^3H]1
[16] = post-mortem human AD brain tissue
[17] = vs [^3H]2, n = 1, Ki=IC50/2, read-out: Inhibition Constant (Ki) versus [^3H]2

T2 sequence (P10636 1-441 isoform P10636-8): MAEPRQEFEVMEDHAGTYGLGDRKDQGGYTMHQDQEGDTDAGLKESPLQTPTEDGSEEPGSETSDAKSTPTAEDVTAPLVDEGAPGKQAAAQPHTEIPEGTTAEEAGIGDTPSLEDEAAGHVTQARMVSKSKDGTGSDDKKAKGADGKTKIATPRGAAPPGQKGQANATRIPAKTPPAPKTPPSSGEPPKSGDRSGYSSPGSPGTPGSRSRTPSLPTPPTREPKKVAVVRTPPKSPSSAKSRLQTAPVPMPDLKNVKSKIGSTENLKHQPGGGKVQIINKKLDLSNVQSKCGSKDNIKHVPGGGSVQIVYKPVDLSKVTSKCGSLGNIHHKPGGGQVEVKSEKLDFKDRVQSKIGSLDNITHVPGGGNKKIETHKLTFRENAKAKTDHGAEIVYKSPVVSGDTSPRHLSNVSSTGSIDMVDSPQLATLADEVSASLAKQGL
T6 sequence (P10636 1-441 isoform P10636-8): as above
T5 sequence (P10636 1-441 isoform P10636-8): as above
T5 sequence (P10636 1-410 isoform P10636-5): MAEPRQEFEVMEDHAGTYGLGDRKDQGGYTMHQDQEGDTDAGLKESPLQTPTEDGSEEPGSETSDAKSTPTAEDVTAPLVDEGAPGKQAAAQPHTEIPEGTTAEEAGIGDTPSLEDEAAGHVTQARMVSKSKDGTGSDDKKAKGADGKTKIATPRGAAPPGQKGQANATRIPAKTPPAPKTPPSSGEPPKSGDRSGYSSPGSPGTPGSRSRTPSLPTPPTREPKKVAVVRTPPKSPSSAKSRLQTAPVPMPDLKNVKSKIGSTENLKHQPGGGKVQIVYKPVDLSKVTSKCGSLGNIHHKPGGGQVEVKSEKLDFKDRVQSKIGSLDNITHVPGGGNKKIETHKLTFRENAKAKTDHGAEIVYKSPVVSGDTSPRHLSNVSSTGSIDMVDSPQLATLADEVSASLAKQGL
T7 sequence (P10636 1-441 isoform P10636-8): as the sequence (P10636 1-441 isoform P10636-8) above
T1 sequence (P10636 1-441 isoform P10636-8): as above
T1 sequence (P10636 1-410 isoform P10636-5): as the sequence (P10636 1-410 isoform P10636-5) above
T4 sequence (P05067 672-713 limits assumed): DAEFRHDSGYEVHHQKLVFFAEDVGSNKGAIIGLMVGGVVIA
T9 sequence (P10636 1-441 isoform P10636-8 P301L): as the sequence (P10636 1-441 isoform P10636-8) above, with P301L counted along it
T8 sequence (P10636 1-410 isoform P10636-5): as the sequence (P10636 1-410 isoform P10636-5) above

Question: Which Ki [1, 15] does the source give for Fc1ccc2cc(-c3cnc(N4CCC(F)(F)CC4)nc3)[nH]c2c1 [Compound 17, 2-(2-(4,4-Difluoropiperidin-1-yl)pyrimidin-5-yl)-6-fluoro-1H-indole] here?
Answer: 37 nM

Question: And the Ki [2, 15]?
Answer: 23 nM

Question: For OC1CCN(c2ncc(-c3cc4cc(F)ccc4o3)cn2)CC1 [Compound 43, 1-(5-(5-Fluorobenzofuran-2-yl)pyrimidin-2-yl)piperidin-4-ol], which Ki [1, 15] is on record?
Answer: 45 nM

Question: And the Ki [2, 15]?
Answer: 91 nM

Question: Which Ki [1, 15] does the source give for OC1CCN(c2ncc(-c3cc4ccccc4[nH]3)cn2)CC1 [Compound 46, 1-(5-(1H-Indol-2-yl)pyrimidin-2-yl)piperidin-4-ol] here?
Answer: 11 nM

Question: What about the Ki [2, 15] of the same compound?
Answer: 24 nM

Question: For OC1CCN(c2ncc(-c3cc4cc(F)ccc4[nH]3)cn2)CC1 [Compound 47, 1-(5-(5-Fluoro-1H-indol-2-yl)pyrimidin-2-yl)piperidin-4-ol], which Ki [1, 15] is on record?
Answer: 21 nM

Question: And the Ki [2, 15]?
Answer: 20 nM

Question: What does the source list for Fc1nc(N2CCOCC2)ccc1-c1cc2ccccc2[nH]1 [Compound 69, 4-(6-Fluoro-5-(1H-indol-2-yl)pyridin-2-yl)morpholine]?
Answer: binding to alpha-synuclein (in words) ([3]; concluded from PD brain tissue): does not bind strongly to alpha-synuclein; binding to the PiB binding site on amyloid-beta (in words) ([4]; concluded from competition against [^3H]PiB): does bind to the PiB binding site on amyloid-beta; competition against [^3H]PiB (in words) [4, 16]: does not compete well

Question: Which results are given for Fc1ccc2cc(-c3cnc(N4CCOCC4)cc3F)[nH]c2c1 [Compound 82, 4-(4-Fluoro-5-(6-fluoro-1H-indol-2-yl)pyridin-2-yl)morpholine]?
Answer: Ki [1, 17]: 11 nM; Ki [2, 17]: 12 nM

Question: Which results are given for Fc1ccc2cc(-c3ncc(N4CCOCC4)cc3F)[nH]c2c1 [Compound 98, 4-(5-Fluoro-6-(6-fluoro-1H-indol-2-yl)pyridin-3-yl)morpholine]?
Answer: Ki [1, 17]: 17 nM; Ki [2, 17]: 20 nM

Question: For Cn1c(-c2cnc(N3CCOCC3)nc2)cc2ccc(F)cc21 [Compound 103, 4-(5-(6-Fluoro-1-methyl-1H-indol-2-yl)pyrimidin-2-yl)morpholine], which Ki [1, 15] is on record?
Answer: 22 nM

Question: And the Ki [2, 15]?
Answer: 32 nM

Question: For OC1CCN(c2ncc(-c3cc4ccc(F)cc4[nH]3)cn2)CC1 [[^3H]1], which Kd [5] is on record?
Answer: 4 ± 3.1 nM

Question: And the Kd [6]?
Answer: 5.1 ± 1.2 nM

Question: What about the Kd [7] of the same compound?
Answer: 4.1 nM

Question: Which Kd [5] does the source give for Fc1ccc2cc(-c3cnc(N4CCOCC4)nc3)[nH]c2c1 [[^3H]2] here?
Answer: 1.2 ± 0.5 nM

Question: What about the Kd [6] of the same compound?
Answer: 1.6 ± 0.2 nM

Question: And the Kd [7]?
Answer: 1.7 ± 0.3 nM

Question: Which results are given for Fc1nc(N2CCOCC2)ccc1-c1cc2ccccc2[nH]1 [[^3H]69]?
Answer: binding affinity (in words) [5, 16]: high affinity; binding affinity (in words) ([6]; post-mortem human PSP brain tissue): high affinity; binding affinity (in words) ([7]; post-mortem human CBD brain tissue): high affinity; binding affinity (in words) [8]: high affinity; binding affinity (in words) [9]: high affinity; Kd ([3]; PD tissue, Table 7 (n = 4)): 110 ± 54 nM; binding affinity (in words) ([3]; Parkinson's Disease (PD) post-mortem brain tissue): low affinity; specific binding by autoradiography [10]: Specific binding; specific binding by autoradiography [11]: Specific binding; specific binding by autoradiography [12]: Specific binding; specific binding by autoradiography [13]: Little to no specific binding

Question: Which logD [14] does the source give for [18F]c1nc(N2CCOCC2)ccc1-c1cc2ccccc2[nH]1 [[^18F]69, 4-(6-[^18F]Fluoro-5-(1H-indol-2-yl)pyridin-2-yl)morpholine] here?
Answer: 1.96 ± 10
